In PubChem BioAssay (NCI):
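Step 1: Grow cells in 96-well plates. Step 2: Expose to compound for 48 hours at 5 concentrations. Step 3: Interpolate endpoints linearly; if unreached, use highest concentration. TGI marks complete inhibition of growth.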

Experiments:
Assay in all cases: growth of human tumour cells (NCI), 48 h
786-0 renal = system: 786-0 renal
A549 NSCLC = system: A549 NSCLC
ACHN renal = system: ACHN renal
CCRF-CEM leukemia = system: CCRF-CEM leukemia
COLO 205 colon = system: COLO 205 colon
DLD-1 colon = system: DLD-1 colon
DMS 273 small cell lung = system: DMS 273 small cell lung
EKVX NSCLC = system: EKVX NSCLC
HCC-2998 colon = system: HCC-2998 colon
HCT-116 colon = system: HCT-116 colon
HCT-15 colon = system: HCT-15 colon
HL-60(TB) leukemia = system: HL-60(TB) leukemia
HOP-62 NSCLC = system: HOP-62 NSCLC
HOP-92 NSCLC = system: HOP-92 NSCLC
HT29 colon = system: HT29 colon
IGROV1 ovarian = system: IGROV1 ovarian
K-562 leukemia = system: K-562 leukemia
KM12 colon = system: KM12 colon
KM20L2 colon = system: KM20L2 colon
LOX IMVI melanoma = system: LOX IMVI melanoma
LXFL 529 NSCLC = system: LXFL 529 NSCLC
M14 melanoma = system: M14 melanoma
M19-MEL melanoma = system: M19-MEL melanoma
MALME-3M melanoma = system: MALME-3M melanoma
MOLT-4 leukemia = system: MOLT-4 leukemia
NCI-H226 lung = system: NCI-H226 lung
NCI-H23 lung = system: NCI-H23 lung
NCI-H460 lung = system: NCI-H460 lung
NCI-H522 lung = system: NCI-H522 lung
OVCAR-3 ovarian = system: OVCAR-3 ovarian
OVCAR-4 ovarian = system: OVCAR-4 ovarian
OVCAR-8 ovarian = system: OVCAR-8 ovarian
RXF 393 renal = system: RXF 393 renal
SF-268 CNS = system: SF-268 CNS
SF-295 CNS = system: SF-295 CNS
SF-539 CNS = system: SF-539 CNS
SK-MEL-2 melanoma = system: SK-MEL-2 melanoma
SK-MEL-28 melanoma = system: SK-MEL-28 melanoma
SK-MEL-5 melanoma = system: SK-MEL-5 melanoma
SK-OV-3 ovarian = system: SK-OV-3 ovarian
SN12C renal = system: SN12C renal
SNB-19 CNS = system: SNB-19 CNS
SNB-75 CNS = system: SNB-75 CNS
SNB-78 CNS = system: SNB-78 CNS
SR leukemia = system: SR leukemia
SW-620 colon = system: SW-620 colon
TK-10 renal = system: TK-10 renal
U251 CNS = system: U251 CNS
UACC-257 melanoma = system: UACC-257 melanoma
UACC-62 melanoma = system: UACC-62 melanoma
UO-31 renal = system: UO-31 renal
XF 498 CNS = system: XF 498 CNS

## CCCCOP1(=O)CC(C)=C(Cl)C(C)(OC)C1 (configuration not stated)
786-0 renal
  TGI: > 100 µM
A549 NSCLC
  TGI: > 100 µM
ACHN renal
  TGI: > 100 µM
CCRF-CEM leukemia
  TGI: 98.7 µM
COLO 205 colon
  TGI: > 100 µM
DLD-1 colon
  TGI: > 100 µM
DMS 273 small cell lung
  TGI: > 100 µM
EKVX NSCLC
  TGI: > 100 µM
HCC-2998 colon
  TGI: > 100 µM
HCT-116 colon
  TGI: > 100 µM
HCT-15 colon
  TGI: > 100 µM
HL-60(TB) leukemia
  TGI: 69 µM
HOP-62 NSCLC
  TGI: > 100 µM
HOP-92 NSCLC
  TGI: > 100 µM
HT29 colon
  TGI: > 100 µM
IGROV1 ovarian
  TGI: > 100 µM
K-562 leukemia
  TGI: > 100 µM
KM12 colon
  TGI: > 100 µM
KM20L2 colon
  TGI: > 100 µM
LOX IMVI melanoma
  TGI: > 100 µM
LXFL 529 NSCLC
  TGI: > 100 µM
M14 melanoma
  TGI: > 100 µM
M19-MEL melanoma
  TGI: > 100 µM
MALME-3M melanoma
  TGI: > 100 µM
MOLT-4 leukemia
  TGI: > 100 µM
NCI-H226 lung
  TGI: > 100 µM
NCI-H23 lung
  TGI: > 100 µM
NCI-H460 lung
  TGI: > 100 µM
NCI-H522 lung
  TGI: > 100 µM
OVCAR-3 ovarian
  TGI: > 100 µM
OVCAR-4 ovarian
  TGI: > 100 µM
OVCAR-8 ovarian
  TGI: > 100 µM
RXF 393 renal
  TGI: > 100 µM
SF-268 CNS
  TGI: > 100 µM
SF-295 CNS
  TGI: > 100 µM
SF-539 CNS
  TGI: > 100 µM
SK-MEL-2 melanoma
  TGI: > 100 µM
SK-MEL-28 melanoma
  TGI: > 100 µM
SK-MEL-5 melanoma
  TGI: > 100 µM
SK-OV-3 ovarian
  TGI: > 100 µM
SN12C renal
  TGI: > 100 µM
SNB-19 CNS
  TGI: > 100 µM
SNB-75 CNS
  TGI: > 100 µM
SNB-78 CNS
  TGI: > 100 µM
SR leukemia
  TGI: 89.3 µM
SW-620 colon
  TGI: > 100 µM
TK-10 renal
  TGI: > 100 µM
U251 CNS
  TGI: > 100 µM
UACC-257 melanoma
  TGI: > 100 µM
UACC-62 melanoma
  TGI: > 100 µM
UO-31 renal
  TGI: > 100 µM
XF 498 CNS
  TGI: > 100 µM
